Activity calls are given as the source filed them. The rule behind the calls is not given here. Positions of bridges follow the written chain, without caps; N, C: chain ends. Residues, ends and D or L forms follow the SMILES beside them.
Assays:
[1] = biological target: T1, Peptidyl-prolyl cis-trans isomerase NIMA-interacting 1 (Homo sapiens, UniProt Q13526); experiment: Binding affinity to human Pin1 PPIase domain at 200 uM by agarose gel electrophoresis
[2] = biological target: T1, Peptidyl-prolyl cis-trans isomerase NIMA-interacting 1; experiment: Binding affinity to human Pin1 WW domain at 200 uM by agarose gel electrophoresis
[3] = biological target: T1, Peptidyl-prolyl cis-trans isomerase NIMA-interacting 1; experiment: Binding affinity to human Pin1 WW domain at 480 uM by NMR chemical shift perturbation method
[4] = biological target: T1, Peptidyl-prolyl cis-trans isomerase NIMA-interacting 1; experiment: Binding affinity to human Pin1 active site at 200 uM by NMR study
[5] = biological target: T1, Peptidyl-prolyl cis-trans isomerase NIMA-interacting 1; experiment: Binding affinity to human Pin1 PPIase domain at 480 uM by NMR chemical shift perturbation method
[6] = biological target: T1, Peptidyl-prolyl cis-trans isomerase NIMA-interacting 1; experiment: Inhibition of human GST-tagged-Pin1 PPIase activity using Suc-AEPF-pNA as substrate by Michaelis-Menten equation
[7] = biological target: T1, Peptidyl-prolyl cis-trans isomerase NIMA-interacting 1; experiment: Competitive inhibition of human GST-tagged-Pin1 PPIase activity using WFYpSPR-pNA as substrate by Michaelis-Menten equation
[8] = Solubility of the compound; assay type: physicochemical

T1 sequence (Q13526 whole entry, the tested form may be a part): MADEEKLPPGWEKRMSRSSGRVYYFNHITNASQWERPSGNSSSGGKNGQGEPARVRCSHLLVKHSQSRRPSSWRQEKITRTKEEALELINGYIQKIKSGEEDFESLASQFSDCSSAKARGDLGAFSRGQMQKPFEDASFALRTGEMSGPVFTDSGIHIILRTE

| Structure (SMILES) | Activity [1] | Activity [2] | Activity [3] | Activity [4] | Activity [5] | Ki [6] | Ki [7] | solubility [8] |
| --- | --- | --- | --- | --- | --- | --- | --- | --- |
| CC[C@H](C)[C@@H]1NC(=O)[C@H](CCC(=O)O)NC(=O)[C@H](C(C)C)NC(=O)[C@H](CCC(=O)O)NC(=O)[C@@H]2CCCN2C(=O)[C@H](Cc2ccc(O)cc2)NC(=O)[C@H](CCCNC(=N)N)NC(=O)[C@@H](N)CSSC[C@@H](C(=O)O)NC1=O (H-CRYPEVEIC-OH; disulfide 1-9) | Active | inactive | inactive | Active | Active | – | – | – |
| CC[C@H](C)[C@H](NC(=O)[C@H](CCC(=O)O)NC(=O)[C@@H](NC(=O)[C@H](CCC(=O)O)NC(=O)[C@@H]1CCCN1C(=O)[C@H](Cc1ccc(O)cc1)NC(=O)[C@H](CCCN=C(N)N)NC(=O)[C@@H](N)CS)C(C)C)C(=O)N[C@@H](CS)C(=O)O [CRYPEVEIC] (H-CRYPEVEIC-OH) | – | – | – | – | – | 44000 nM | – | – |
| CC[C@H](C)[C@@H]1NC(=O)[C@H](CCC(=O)O)NC(=O)[C@H](C(C)C)NC(=O)[C@H](CCC(=O)O)NC(=O)[C@@H]2CCCN2C(=O)[C@H](Cc2ccc(O)cc2)NC(=O)[C@H](CCCN=C(N)N)NC(=O)[C@@H](N)CSSC[C@@H](C(=O)O)NC1=O [CYCLIC CRYPEVEIC] (H-CRYPEVEIC-OH; disulfide 1-9) | – | – | – | – | – | 520 nM | 200 nM | soluble |

— ChEMBL document CHEMBL1782037, “Discovery and characterization of a nonphosphorylated cyclic peptide inhibitor of the peptidylprolyl isomerase, Pin1” (J Med Chem, 2011)
